# Laboratory results taken from patent US10273240B2, “Cortistatin analogues, syntheses, and uses thereof” (President and Fellows of Harvard College, priority 2015, dated 2019).
# Like-named read-outs stand apart in the source and are kept apart here.
# Legend:
# [1] = system: Smad2 T220 and Smad3 T179 phosphorylation; assay: TGF-β-stimulated Smad2 T220 and Smad3 T179 phosphorylation immunoblot; assay type: cell-based, human; conditions: HaCaT cells
# Experimental: (§1) Kinase Assays. Data was quantified with ImageJ and plotted and fitted with GraphPad Prism 6.0. For STAT1 transactivation domain (TAD), 750 ng of GST-STAT1 TAD (residues 639-750) was incubated with ˜50 ng recombinant CDK8 module at 30° C. for 8 min in kinase buffer (25 mM Tris pH 8, 2 mM DTT, 100 μM cold ATP, 100 mM KCl, 10 mM MgCl2 and 2.5 μCi [γ-^32P] ATP (Perkin Elmer) per reaction). […] 12% SDS-PAGE gels were subsequently silver stained, exposed for 18 h on a Phosphor Screen and imaged (Typhoon 9400, GE Life Sciences). For pol II CTD, 400 ng of GST-CTD (murine sequence) was incubated with ˜40 ng recombinant CDK8 module, 25 ng TFIIH, or 40 ng P-TEFb at 30° C. for 60 min in kinase buffer. Kinase amounts were chosen to give similar total pol II CTD signal. 9% SDS-PAGE gels were silver stained and exposed as above. In vitro FLAG-CDK8 kinase assays used ˜40 ng kinase and 500 ng GST-CTD. For STAT1 or Smad2/3, cells were treated with compound for 1 h followed by IFN-γ or TGF-β1 for 1 h, then washed twice with cold PBS, and lysed (RIPA buffer with inhibitors R0278, P8340, P0044, P5762 Sigma-Aldrich). Standard immunoblotting was then performed with one immunoblot shown. All experiments were performed twice.
# [2] = molecular target: T1, CDK9 (P-TEFb) (Homo sapiens, UniProt P50750); assay: In vitro kinase assay, CDK9 (P-TEFb); assay type: biochemical
# T1 construct: made in house
# T1 sequence (P50750 1-345 limits assumed): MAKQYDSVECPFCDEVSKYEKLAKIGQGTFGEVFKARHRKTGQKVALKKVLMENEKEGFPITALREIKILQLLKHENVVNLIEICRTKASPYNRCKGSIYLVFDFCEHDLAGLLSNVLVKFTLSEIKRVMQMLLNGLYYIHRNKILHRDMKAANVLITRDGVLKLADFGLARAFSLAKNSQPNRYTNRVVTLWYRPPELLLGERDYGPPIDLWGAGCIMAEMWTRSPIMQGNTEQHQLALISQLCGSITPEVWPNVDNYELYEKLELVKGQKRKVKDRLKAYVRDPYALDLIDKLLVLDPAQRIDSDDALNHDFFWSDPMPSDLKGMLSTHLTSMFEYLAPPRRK
# T1 sequence (O60563 1-266 partner limits assumed): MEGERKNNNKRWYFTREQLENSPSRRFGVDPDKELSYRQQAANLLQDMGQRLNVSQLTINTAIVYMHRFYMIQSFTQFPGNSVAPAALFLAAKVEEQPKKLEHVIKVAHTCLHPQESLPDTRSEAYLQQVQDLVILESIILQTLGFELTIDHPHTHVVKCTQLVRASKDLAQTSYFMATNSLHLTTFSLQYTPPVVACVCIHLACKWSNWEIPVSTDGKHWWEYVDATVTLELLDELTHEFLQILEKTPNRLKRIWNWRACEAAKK
# Experimental: as §1
# Protein Purification. Buffers for purification and elution of recombinant proteins included 0.25 mM PMSF, 1 mM DTT, 1 mM benzamidine, and 1 mM sodium metabisulfite. […]
# [3] = system: STAT1 S727 phosphorylation in NK cells; assay: STAT1 pS727 inhibition in NK cells in vivo; conditions: C57BL/6 mice, NK cells from spleen
# [4] = molecular target: T2, CDK9 in MOLM-14 cell lysate (Homo sapiens, UniProt P50750); assay: Native kinase capture immunoblot, CDK9; assay type: binding
# T2 construct: endogenous in cells; host or cells: MOLM-14 cell lysate
# T2 sequence (P50750 whole entry): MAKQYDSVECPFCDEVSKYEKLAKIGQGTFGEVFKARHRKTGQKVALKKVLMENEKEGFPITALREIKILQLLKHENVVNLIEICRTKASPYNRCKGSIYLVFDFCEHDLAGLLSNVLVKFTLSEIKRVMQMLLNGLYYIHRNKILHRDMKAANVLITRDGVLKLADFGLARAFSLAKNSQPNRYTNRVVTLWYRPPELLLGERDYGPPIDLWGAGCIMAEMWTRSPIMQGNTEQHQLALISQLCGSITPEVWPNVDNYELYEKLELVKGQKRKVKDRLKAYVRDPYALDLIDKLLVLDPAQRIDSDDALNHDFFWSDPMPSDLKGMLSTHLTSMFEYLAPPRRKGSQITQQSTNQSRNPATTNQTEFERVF
# T2 sequence (O60563 whole entry partner): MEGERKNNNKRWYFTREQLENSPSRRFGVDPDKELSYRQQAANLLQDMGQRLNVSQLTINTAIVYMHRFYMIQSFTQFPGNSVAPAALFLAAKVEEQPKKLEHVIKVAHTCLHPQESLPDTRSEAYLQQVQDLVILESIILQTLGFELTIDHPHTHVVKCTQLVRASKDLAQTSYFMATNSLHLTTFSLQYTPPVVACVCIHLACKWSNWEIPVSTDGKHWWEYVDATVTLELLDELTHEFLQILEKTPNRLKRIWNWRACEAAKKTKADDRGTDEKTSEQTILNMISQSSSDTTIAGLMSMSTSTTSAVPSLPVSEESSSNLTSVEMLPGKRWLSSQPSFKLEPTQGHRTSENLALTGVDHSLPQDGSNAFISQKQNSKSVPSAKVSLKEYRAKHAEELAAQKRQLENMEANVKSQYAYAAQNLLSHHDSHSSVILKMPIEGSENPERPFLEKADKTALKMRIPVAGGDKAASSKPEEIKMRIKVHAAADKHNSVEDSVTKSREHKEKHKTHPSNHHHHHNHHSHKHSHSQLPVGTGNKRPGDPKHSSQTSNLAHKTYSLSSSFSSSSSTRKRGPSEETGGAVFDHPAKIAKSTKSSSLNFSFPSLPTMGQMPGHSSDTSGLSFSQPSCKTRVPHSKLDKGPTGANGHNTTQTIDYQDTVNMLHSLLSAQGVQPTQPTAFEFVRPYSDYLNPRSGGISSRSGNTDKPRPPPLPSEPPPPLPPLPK
# Experimental: Native Kinase Capture Immunoblot and Native Kinome-Wide Profiling. […] Experiment was performed twice with one immunoblot shown.
# [5] = system: HEL; assay: Cell growth assay, HEL; assay type: cell-based; conditions: Homo sapiens, 240 h, CA, after 10 days, read-out: Mean GI50 (nM), HEL
# Experimental: (§2) Cell Culture. All media was supplemented with 100 U/mL penicillin and 100 μg/mL streptomycin. Human cancer cell lines were grown in the following media: MV4; 11, RS4; 11, K562, HEL, MOLM-14, MEG-01 in RPMI-1640, 10% FBS; SET-2 in RPMI-1640, 20% FBS; UKE-1 in RPMI-1640, 10% FBS, 10% horse serum and 1 μM hydrocortisone; SKNO-1 and TF-1 in RPMI-1640, 10% FBS, and 10 or 2 ng/mL GM-CSF, respectively; HaCaT in DMEM, 10% FBS; and HCT116 in McCoy's 5 A, 10% FBS (proliferation assay) or DMEM, 10% FBS (gene expression study). HepG2, MV4;11, RS4;11, MEG-01, TF-1, HCT116 and K562 were from ATCC. SKNO-1 was from DSMZ. HEL, UKE-1, and SET-2 were provided by Ross L. Levine and HaCaT, MV4;11-mCLP, and MOLM-14 by Van Wilson, Andrew L. Kung, and Scott A. Armstrong, respectively. MOLM-14 cells were authenticated by STR profiling and flow cytometry and all cell lines were routinely tested and found to be negative for mycoplasma.
# [6] = system: K562; assay: Cell growth assay, K562; assay type: cell-based; conditions: Homo sapiens
# Experimental: All media was supplemented with 100 U/mL penicillin and 100 μg/mL streptomycin. Human cancer cell lines were grown in the following media: MV4; 11, K562, MOLM-14 in RPMI-1640, 10% FBS; SKNO-1 in RPMI-1640, 10% FBS, and 10 ng/mL GM-CSF; MV4;11 and K562 were from ATCC. SKNO-1 was from DSMZ.
# as §2
compound,measurement,setting,value
"CN(C)[C@H]1C[C@@]23CC[C@@]4(O2)C(=CC[C@@]2(C)[C@@H](c5ccc6ccncc6c5)CC[C@H]24)C=C3[C@@H](O)[C@@H]1O [CA, cortistatin A]",inhibition of Smad2 T220 and Smad3 T179 phosphorylation,[1],dose-dependently inhibited
same,inhibition of CDK9 (P-TEFb),[2],did not inhibit
same,STAT1 S727 phosphorylation in NK cells,[3],dose-dependent reduction
same,binding of CDK9 (no binding at up to),[4],> 2500 nM
same,GI50,[5],> 1000 nM
same,GI50,"[6]; K562, 240 h, CA, after 10 days, read-out: Mean GI50 (nM), K562",> 1000 nM
same,GI50,"[6]; K562, 240 h, read-out: K562 GI50 day 10",> 1000 nM
same,GI50,"[6]; K562, Table 5, read-out: GI50 (nM), K562",> 1000 nM
